In the supplement of paper PMC10307832:

How the values were obtained:
Assay in all cases: relative viability (nuclei count vs DMSO), 5 days (fraction); higher = more cells survive
[1] = system: 201T
Summary of the method: (§1)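 For relative viability, nuclei counts in treated wells were divided by those in vehicle wells. Lung cancer cell lines had been pin-tool dosed in 1536-well plates the day after seeding and cultured for 5 days, then fixed and stained in one step (final 0.05% Triton X-100, 1% formaldehyde, 1 ug/ml Hoechst) and imaged at 4×. Doses were one drug alone or a fixed anchor-drug dose plus five library-drug doses (not always all listed) in √10 steps, and values are duplicate-plate medians.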

[2] = system: ABC-1
Summary of the method: as §1

[3] = system: BEN
Summary of the method: as §1

[4] = system: CAL-12T
Summary of the method: as §1

[5] = system: COR-L 105
Summary of the method: as §1

[6] = system: COR-L23
Summary of the method: as §1

[7] = system: EKVX
Summary of the method: as §1

[8] = system: HARA
Summary of the method: as §1

[9] = system: HCC-366
Summary of the method: as §1

[10] = system: LK-2
Summary of the method: as §1

[11] = system: LU99A
Summary of the method: as §1

[12] = system: NCI-H1437
Summary of the method: as §1

[13] = system: NCI-H1650
Summary of the method: as §1

[14] = system: NCI-H1666
Summary of the method: as §1

[15] = system: NCI-H2009
Summary of the method: as §1

[16] = system: NCI-H2023
Summary of the method: as §1

[17] = system: NCI-H2170
Summary of the method: as §1

[18] = system: NCI-H3122
Summary of the method: as §1

[19] = system: NCI-H441
Summary of the method: as §1

[20] = system: NCI-H661
Summary of the method: as §1

[21] = system: NCI-H727
Summary of the method: as §1

[22] = system: NCI-H838
Summary of the method: as §1

[23] = system: PC-14
Summary of the method: as §1

[24] = system: SW 900
Summary of the method: as §1

In the case of `C[C@@H]1CN(CC(=O)Nc2ccc3c(c2)Cc2cccc(-c4cc(=O)cc(N5CCOCC5)o4)c2S3)C[C@H](C)O1` + N=C(N)NC(=N)NCCc1ccccc1 [Phenformin] (partner 250 µM), the relative viability ([1]; first compound 0.04 µM) is reported as 0.439, the relative viability ([1]; first compound 0.1265 µM) is reported as 0.423 and the relative viability ([1]; first compound 0.4 µM) is reported as 0.477. The relative viability ([1]; first compound 4 µM) was 0.517, the relative viability ([2]; first compound 0.1265 µM) was 0.256 and the relative viability ([2]; first compound 0.4 µM) was 0.273. The relative viability ([2]; first compound 4 µM) was 0.236, the relative viability ([3]; first compound 0.04 µM) was 0.254 and the relative viability ([3]; first compound 0.1265 µM) was 0.261. The relative viability ([3]; first compound 0.4 µM) was 0.294, the relative viability ([3]; first compound 4 µM) was 0.264 and the relative viability ([4]; first compound 0.04 µM) was 0.712. The relative viability ([4]; first compound 0.1265 µM) was 0.505, the relative viability ([4]; first compound 0.4 µM) was 0.598 and the relative viability ([4]; first compound 4 µM) was 0.425. It also gave a relative viability ([5]; first compound 0.04 µM) of 0.503, a relative viability ([5]; first compound 0.1265 µM) of 0.444 and a relative viability ([5]; first compound 0.4 µM) of 0.552. For the same molecule, the relative viability ([5]; first compound 4 µM) was 0.468, the relative viability ([6]; first compound 0.04 µM) was 0.435 and the relative viability ([6]; first compound 0.1265 µM) was 0.476. It also gave a relative viability ([6]; first compound 0.4 µM) of 0.499, a relative viability ([6]; first compound 4 µM) of 0.439 and a relative viability ([7]; first compound 0.04 µM) of 0.23. For the same molecule, the relative viability ([7]; first compound 0.1265 µM) was 0.25, the relative viability ([7]; first compound 0.4 µM) was 0.234 and the relative viability ([7]; first compound 4 µM) was 0.221. It also gave a relative viability ([8]; first compound 0.1265 µM) of 0.357, a relative viability ([8]; first compound 0.4 µM) of 0.436 and a relative viability ([8]; first compound 4 µM) of 0.467. For the same molecule, the relative viability ([9]; first compound 0.04 µM) was 0.659, the relative viability ([9]; first compound 0.1265 µM) was 0.656 and the relative viability ([9]; first compound 0.4 µM) was 0.634. For the same molecule, the relative viability ([9]; first compound 4 µM) was 0.681, the relative viability ([10]; first compound 0.1265 µM) was 0.464 and the relative viability ([10]; first compound 0.4 µM) was 0.365. The relative viability ([10]; first compound 4 µM) was 0.634, the relative viability ([11]; first compound 0.04 µM) was 0.742 and the relative viability ([11]; first compound 0.1265 µM) was 0.985. For the same molecule, the relative viability ([11]; first compound 0.4 µM) was 1.02, the relative viability ([11]; first compound 4 µM) was 0.916 and the relative viability ([12]; first compound 0.04 µM) was 0.338. The relative viability ([12]; first compound 0.1265 µM) was 0.306, the relative viability ([12]; first compound 0.4 µM) was 0.303 and the relative viability ([12]; first compound 4 µM) was 0.365. The relative viability ([13]; first compound 0.04 µM) was 0.406, the relative viability ([13]; first compound 0.1265 µM) was 0.431 and the relative viability ([13]; first compound 0.4 µM) was 0.37. For the same molecule, the relative viability ([13]; first compound 4 µM) was 0.347, the relative viability ([14]; first compound 0.04 µM) was 0.57 and the relative viability ([14]; first compound 0.1265 µM) was 0.553. It also gave a relative viability ([14]; first compound 0.4 µM) of 0.58, a relative viability ([14]; first compound 4 µM) of 0.554 and a relative viability ([15]; first compound 0.04 µM) of 0.525. The relative viability ([15]; first compound 0.1265 µM) was 0.494, the relative viability ([15]; first compound 0.4 µM) was 0.453 and the relative viability ([15]; first compound 4 µM) was 0.384. The relative viability ([16]; first compound 0.04 µM) was 0.458, the relative viability ([16]; first compound 0.1265 µM) was 0.432 and the relative viability ([16]; first compound 0.4 µM) was 0.385. It also gave a relative viability ([16]; first compound 4 µM) of 0.344, a relative viability ([17]; first compound 0.04 µM) of 0.406 and a relative viability ([17]; first compound 0.1265 µM) of 0.43. The relative viability ([17]; first compound 0.4 µM) was 0.44, the relative viability ([17]; first compound 4 µM) was 0.412 and the relative viability ([18]; first compound 0.04 µM) was 0.409. For the same molecule, the relative viability ([18]; first compound 0.1265 µM) was 0.387, the relative viability ([18]; first compound 0.4 µM) was 0.365 and the relative viability ([18]; first compound 4 µM) was 0.301. For the same molecule, the relative viability ([19]; first compound 0.04 µM) was 0.913, the relative viability ([19]; first compound 0.1265 µM) was 0.897 and the relative viability ([19]; first compound 0.4 µM) was 0.682. The relative viability ([19]; first compound 4 µM) was 0.722, the relative viability ([20]; first compound 0.04 µM) was 0.261 and the relative viability ([20]; first compound 0.1265 µM) was 0.274. For the same molecule, the relative viability ([20]; first compound 0.4 µM) was 0.262, the relative viability ([20]; first compound 4 µM) was 0.317 and the relative viability ([21]; first compound 0.04 µM) was 0.626. The relative viability ([21]; first compound 0.1265 µM) was 0.663, the relative viability ([21]; first compound 0.4 µM) was 0.599 and the relative viability ([21]; first compound 4 µM) was 0.544. For the same molecule, the relative viability ([22]; first compound 0.04 µM) was 0.527, the relative viability ([22]; first compound 0.1265 µM) was 0.54 and the relative viability ([22]; first compound 0.4 µM) was 0.497. It also gave a relative viability ([22]; first compound 4 µM) of 0.374, a relative viability ([23]; first compound 0.04 µM) of 0.377 and a relative viability ([23]; first compound 0.1265 µM) of 0.528. It also gave a relative viability ([23]; first compound 0.4 µM) of 0.556, a relative viability ([23]; first compound 4 µM) of 0.574 and a relative viability ([24]; first compound 0.04 µM) of 0.466. It also gave a relative viability ([24]; first compound 0.1265 µM) of 0.724, a relative viability ([24]; first compound 0.4 µM) of 0.669 and a relative viability ([24]; first compound 4 µM) of 0.488.
